Laboratory results reported in US20250049904A1, “IMMUNOSTIMULATORY COMPOSITIONS” (VICTORIA LINK LIMITED, priority 2021, published 2025).

Experiments:
NKT cells in the liver = assay: NKT cell phenotype in the liver after LPX-mRNA vaccination (CD1d/α-GalCer tetramer binding, PD-1); assay type: in vivo, C57BL/6 mice; details: correlates with dose
Protocol: Dose response of LPX-mOVA-α-GalCer versus LPX-mOVA-CI058 vaccines. Analysis was in C57BL/6 mice, without transfer of OT-I cells, so endogenous T cell responses were monitored on a normal T cell repertoire. Groups of 5 mice were used, and vaccines were administered intravenously. After 28 days, mice were killed and liver tissue collected for analysis of induced T cell response by flow cytometry. […] At the same timer, NKT cells in the liver were also evaluated using fluorescent CD1d/α-GalCer tetramers. […] (B) Graph showing mean level of expression of the “invariant” NKT cell-associated TCR for each treatment group (±SEM), defined as level of binding of fluorescent CD1d/α-GalCer tetramers and expressed as mean fluorescence index. ****P<0.0001 (C) Graph showing mean level of expression of PD-1 on NKT cells for each treatment group (±SEM). **P<0.01
(§1) Lymphocytes were stained with monoclonal antibodies for: CD8a (53-6.7), Ly5.1 (A20), CD44 (IM7), CXCR6 (SA051D1), CX3CR1 (SA011F11), from BioLegend (Australian Biosearch, Karrinyup, WA. Australia), and CD62L (MEL-14) and CD69 (H1.2F3), from eBioscience (Jomar Life Research, Scoresby, VIC, Australia). […] Single-color positive control samples were used to adjust compensation and cells were analyzed by flow cytometry on a LSR Fortessa (BD Biosciences), or LSRII SORP using Flowjo software (Tree Star Inc.).

liver TRM cells = assay: LPX-mOVA-CI058 vaccination of NKT cell-deficient mice; liver TRM cells; assay type: in vivo, TRAJ18-deficient mice; details: LPX vaccine with CI058, 28 days after vaccination
Protocol: Groups (n=3) of C57BL/6 mice or TRAJ18-deficient mice were vaccinated with LPX-mOVA-CI058, or injected with PBS vehicle. The TRAJ18-deficient strain cannot complete the TCR rearrangement required to form the TCR-alpha chain used by type I NKT cells, and therefore are deficient in these cells, while the remaining T cell repertoire is largely intact. No prior transfer of OT-I cells was conducted, so results reflect endogenous T cell responses to vaccination. Mean number of TRM cells in liver 28 days after vaccination for each treatment group (±SEM) are shown; dots represent individual mice. **P<0.01,
C57BL/6 (B6), OT-I^1, and TRAJ18^−/− mice were bred and maintained at the Department of Microbiology and Immunology, The University of Melbourne, or the BRU, Malaghan Institute of Medical Research, New Zealand. […]
as §1

SMILES: CCCCCCCCCCCCCCCCCCCCCCCCCC(=O)N[C@@H](CO[C@H]1O[C@H](CSCC(=O)Nc2ccc(C3=C4C(C)=CC(C)=[N+]4[B-](F)(F)n4c(C)cc(C)c43)cc2)[C@H](O)[C@H](O)[C@H]1O)[C@H](O)[C@H](O)CCCCCCCCCCCCCC [CI058, (2S,3S,4R)-1-(6-Deoxy-6-((2-((4-(5,5-difluoro-1,3,7,9-tetramethyl-5H-4λ4,5λ4-dipyrrolo[1,2-c:2′,1′-f][1,3,2]diazaborinin-10-yl)phenyl)amino)-2-oxoethyl)thio)-α-D-galactopyranosyloxy)-2-hexacosanoylamino-3,4-octadecandiol]
- expression of NKT cell-associated invariant TCR in liver (NKT cells in the liver; CD1d/α-GalCer tetramers): significantly reduced expression
- expression of PD-1 on liver NKT cells (NKT cells in the liver): significantly increased expression
- liver TRM cell accumulation in NKT cell-deficient mice (liver TRM cells): no liver TRM cell accumulation is induced
